# Results published in patent US6706663B2, “Herbicidal 3-heterocyclic substituted benzisothiazole and benzisoxazole compounds” (Wyeth, priority 2000, dated 2004).
# Assays:
# ORYSAT (Rice, Tebonnet) [1] = experiment: Postemergence herbicidal evaluation; format: in vivo, Oryza sativa, (L.) Tebonnet; conditions: postemergence
# In short: (§1)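 Seedlings grown for about two weeks were sprayed postemergence and then kept under standard greenhouse care. Injury was rated visually 4–5 weeks after treatment on a 0–9 scale against untreated controls, and ratings from repeat tests were averaged.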
# GALAP (Galium aparine) = experiment: Postemergence herbicidal evaluation; format: in vivo; conditions: postemergence
# In short: as §1
# SETVI (Setaria viridis) [2] = experiment: Postemergence herbicidal evaluation; format: in vivo, (L.) Beau; conditions: postemergence
# In short: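 Visual injury score (0-9: stand, vigor, malformation, size, chlorosis, overall appearance vs untreated control) taken four to five weeks post-spray. Two-week-old seedlings received about 0.0040 to 1.000 kg/ha active compound in acetone/water with 0.5% TWEEN 20.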
# SETVI (Setaria viridis) [3] = experiment: Preemergence herbicidal evaluation; format: in vivo, (L.) Beau; conditions: rated 4-5 weeks after treatment
# In short: (§2)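 Seeds mixed with potting soil were planted atop about one inch of soil, then sprayed with test compound in aqueous acetone. Cups were kept in the greenhouse and rated visually 4–5 weeks after treatment on a 0–9 scale against untreated control.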
# [4] = test system: ECHCG (Echinochloa crus-galli); experiment: Preemergence herbicidal evaluation; format: in vivo, (L.) Beau; conditions: rated 4-5 weeks after treatment
# In short: as §2
# [5] = test system: ECHORC (Echinochloa oryzoides); experiment: Flooded paddy, preemergence weed control; format: in vivo, Echinochloa oryzoides (Ard.) Fritsch.; conditions: rated 3-4 weeks after treatment, 0-9 rating scale
# In short: (§3)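 Visual 0-9 rating versus control, scoring stand, vigor, malformation, size, chlorosis and overall appearance. Silt loam soil, propagules in top 0.5 cm; flood depth 1.5–3 cm held for the whole test; greenhouse.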
# [6] = test system: CASOB (Cassia obtusifolia); experiment: Preemergence herbicidal evaluation; format: in vivo, L.; conditions: rated 4-5 weeks after treatment
# In short: as §2
# [7] = test system: AMBEL (Ambrosia artemisifolia); experiment: Preemergence herbicidal evaluation; format: in vivo, L.; conditions: rated 4-5 weeks after treatment
# In short: as §2
# [8] = test system: CHEAL (Chenopodium album); experiment: Preemergence herbicidal evaluation; format: in vivo, L.; conditions: rated 4-5 weeks after treatment
# In short: as §2
# [9] = test system: IPOHE (Ipomoea hederacea); experiment: Postemergence herbicidal evaluation; format: in vivo, (L.) Jacq.; conditions: postemergence
# In short: as §1
# [10] = test system: MOOVA (Monochoria vaginalis); experiment: Flooded paddy, preemergence weed control; format: in vivo, Presl.; conditions: rated 3-4 weeks after treatment, 0-9 rating scale
# In short: as §3
# [11] = test system: ECHCG (Echinochloa crus-galli); experiment: Postemergence herbicidal evaluation; format: in vivo, (L.) Beau; conditions: postemergence
# In short: as §1
# [12] = test system: SAGPY (Sagittaria pygmaea); experiment: Flooded paddy, preemergence weed control; format: in vivo, L.; conditions: rated 3-4 weeks after treatment, 0-9 rating scale
# In short: as §3
# [13] = test system: IPOHE (Ipomoea hederacea); experiment: Preemergence herbicidal evaluation; format: in vivo, (L.) Jacq.; conditions: rated 4-5 weeks after treatment
# ORYSAT (Rice, Tebonnet) [14] = experiment: Flooded paddy, post-transplant rice tolerance; format: in vivo, Oryza sativa, (L.) Tebonnet; conditions: flooded paddy, post-transplant rice, rated 3-4 weeks after treatment, 0-9 rating scale
# In short: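 Two ten-day-old seedlings were transplanted into silt loam, flooded and held at 1.5 to 3 cm water above the soil before herbicide treatment. Pots stayed in the greenhouse at that water level. Injury was scored visually on a 0-9 scale versus untreated control.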
# [15] = test system: ABUTH (Abutilon theophrasti); experiment: Postemergence herbicidal evaluation; format: in vivo, Medic.; conditions: postemergence
# In short: as §1
# CYPIR (Cyperus iria) = experiment: Flooded paddy, preemergence weed control; format: in vivo; conditions: rated 3-4 weeks after treatment, 0-9 rating scale
# In short: as §3
# ZEAMX (Corn, Field) = experiment: Postemergence herbicidal evaluation; format: in vivo, Zea mays, L.; conditions: postemergence
# In short: as §1
# ORYSAT (Rice, Tebonnet) [16] = experiment: Preemergence herbicidal evaluation; format: in vivo, Oryza sativa, (L.) Tebonnet; conditions: rated 4-5 weeks after treatment
# [17] = test system: GLXMAW (Soybean, Williams); experiment: Postemergence herbicidal evaluation; format: in vivo, Glycine max, (L.) Merr. cv Williams; conditions: postemergence
# In short: as §1
compound,measurement,setting,value
"Cc1nn(-c2nsc3ccc(-n4c(=O)cc(C(F)(F)F)n(C)c4=O)cc23)c(C)c1C [Compound 49, 1-methyl-6-(trifluoromethyl)-3-[3-(3,4,5-trimethylpyrazol-1-yl)-1,2-benzisothiazol-5-yl]uracil]",ORYSAT herbicidal rating,"ORYSAT (Rice, Tebonnet) [1]; rate 0.0320 kg/ha",0.5
same,ORYSAT herbicidal rating,"ORYSAT (Rice, Tebonnet) [1]; rate 0.0620 kg/ha",1.5
same,GALAP herbicidal rating,GALAP (Galium aparine); rate 0.0320 kg/ha,0.0
same,GALAP herbicidal rating,GALAP (Galium aparine); rate 0.0620 kg/ha,0.0
same,SETVI herbicidal rating,SETVI (Setaria viridis) [2]; rate 0.0320 kg/ha,0.0
same,SETVI herbicidal rating,SETVI (Setaria viridis) [2]; rate 0.0620 kg/ha,0.0
same,Preemergence herbicidal rating SETVI,SETVI (Setaria viridis) [3]; Rate 0.0620 kg/ha,0.0
same,Preemergence herbicidal rating SETVI,SETVI (Setaria viridis) [3]; Rate 0.1250 kg/ha,0.0
same,Preemergence herbicidal rating SETVI,SETVI (Setaria viridis) [3]; Rate 0.2500 kg/ha,0.0
same,Preemergence herbicidal rating ECHCG,[4]; Rate 0.0620 kg/ha,0.0
same,Preemergence herbicidal rating ECHCG,[4]; Rate 0.1250 kg/ha,0.0
same,Preemergence herbicidal rating ECHCG,[4]; Rate 0.2500 kg/ha,0.0
same,"herbicidal rating, ECHORC",[5]; rate 0.0320 kg/ha,0.0
same,"herbicidal rating, ECHORC",[5]; rate 0.1250 kg/ha,0.0
same,Preemergence herbicidal rating CASOB,[6]; Rate 0.0620 kg/ha,0.0
same,Preemergence herbicidal rating CASOB,[6]; Rate 0.1250 kg/ha,0.0
same,Preemergence herbicidal rating CASOB,[6]; Rate 0.2500 kg/ha,0.0
same,Preemergence herbicidal rating AMBEL,[7]; Rate 0.0620 kg/ha,0.0
same,Preemergence herbicidal rating AMBEL,[7]; Rate 0.1250 kg/ha,0.0
same,Preemergence herbicidal rating AMBEL,[7]; Rate 0.2500 kg/ha,0.0
same,Preemergence herbicidal rating CHEAL,[8]; Rate 0.0620 kg/ha,0.0
same,Preemergence herbicidal rating CHEAL,[8]; Rate 0.1250 kg/ha,0.0
same,Preemergence herbicidal rating CHEAL,[8]; Rate 0.2500 kg/ha,0.0
same,IPOHE herbicidal rating,[9]; rate 0.0320 kg/ha,5.0
same,IPOHE herbicidal rating,[9]; rate 0.0620 kg/ha,8.0
same,"herbicidal rating, MOOVA",[10]; rate 0.0320 kg/ha,0.0
same,ECHCG herbicidal rating,[11]; rate 0.0320 kg/ha,0.0
same,ECHCG herbicidal rating,[11]; rate 0.0620 kg/ha,0.0
same,"herbicidal rating, SAGPY",[12]; rate 0.0320 kg/ha,0.0
same,"herbicidal rating, SAGPY",[12]; rate 0.1250 kg/ha,0.0
same,Preemergence herbicidal rating IPOHE,[13]; Rate 0.0620 kg/ha,0.0
same,Preemergence herbicidal rating IPOHE,[13]; Rate 0.1250 kg/ha,0.0
same,Preemergence herbicidal rating IPOHE,[13]; Rate 0.2500 kg/ha,0.0
same,"herbicidal rating, ORYSAT (rice tolerance)","ORYSAT (Rice, Tebonnet) [14]; rate 0.0320 kg/ha",0.0
same,"herbicidal rating, ORYSAT (rice tolerance)","ORYSAT (Rice, Tebonnet) [14]; rate 0.1250 kg/ha",0.0
same,ABUTH herbicidal rating,[15]; rate 0.0320 kg/ha,0.0
same,ABUTH herbicidal rating,[15]; rate 0.0620 kg/ha,0.0
same,"herbicidal rating, CYPIR",CYPIR (Cyperus iria); rate 0.0320 kg/ha,0.0
same,"herbicidal rating, CYPIR",CYPIR (Cyperus iria); rate 0.1250 kg/ha,0.0
same,ZEAMX herbicidal rating,"ZEAMX (Corn, Field); rate 0.0320 kg/ha",0.5
same,ZEAMX herbicidal rating,"ZEAMX (Corn, Field); rate 0.0620 kg/ha",2.5
same,Preemergence herbicidal rating ORYSAT,"ORYSAT (Rice, Tebonnet) [16]; Rate 0.0620 kg/ha",0.0
same,Preemergence herbicidal rating ORYSAT,"ORYSAT (Rice, Tebonnet) [16]; Rate 0.1250 kg/ha",0.0
same,Preemergence herbicidal rating ORYSAT,"ORYSAT (Rice, Tebonnet) [16]; Rate 0.2500 kg/ha",0.0
same,GLXMAW herbicidal rating,[17]; rate 0.0320 kg/ha,1.5
same,GLXMAW herbicidal rating,[17]; rate 0.0620 kg/ha,2.5
"Cc1cnn(-c2nsc3ccc(-n4c(=O)cc(C(F)(F)F)n(C)c4=O)cc23)c1 [Compound 59, 1-methyl-3-[3-(4-methylpyrazol-1-yl)-1,2-benzisothiazol-5-yl]-6-(trifluoromethyl)uracil]",ORYSAT herbicidal rating,"ORYSAT (Rice, Tebonnet) [1]; rate 0.0320 kg/ha",2.0
same,ORYSAT herbicidal rating,"ORYSAT (Rice, Tebonnet) [1]; rate 0.0620 kg/ha",2.5
same,ORYSAT herbicidal rating,"ORYSAT (Rice, Tebonnet) [1]; rate 0.1250 kg/ha",2.5
same,GALAP herbicidal rating,GALAP (Galium aparine); rate 0.0320 kg/ha,0.0
same,GALAP herbicidal rating,GALAP (Galium aparine); rate 0.0620 kg/ha,3.0
same,GALAP herbicidal rating,GALAP (Galium aparine); rate 0.1250 kg/ha,3.0
same,SETVI herbicidal rating,SETVI (Setaria viridis) [2]; rate 0.0320 kg/ha,0.0
same,SETVI herbicidal rating,SETVI (Setaria viridis) [2]; rate 0.1250 kg/ha,3.0
same,Preemergence herbicidal rating SETVI,SETVI (Setaria viridis) [3]; Rate 0.0620 kg/ha,6.0
same,Preemergence herbicidal rating SETVI,SETVI (Setaria viridis) [3]; Rate 0.1250 kg/ha,6.0
same,Preemergence herbicidal rating SETVI,SETVI (Setaria viridis) [3]; Rate 0.2500 kg/ha,9.0
same,Preemergence herbicidal rating ECHCG,[4]; Rate 0.0620 kg/ha,2.0
same,Preemergence herbicidal rating ECHCG,[4]; Rate 0.1250 kg/ha,3.0
same,Preemergence herbicidal rating ECHCG,[4]; Rate 0.2500 kg/ha,7.0
same,"herbicidal rating, ECHORC",[5]; rate 0.0080 kg/ha,0.0
same,"herbicidal rating, ECHORC",[5]; rate 0.0320 kg/ha,0.0
same,"herbicidal rating, ECHORC",[5]; rate 0.1250 kg/ha,3.0
same,Preemergence herbicidal rating CASOB,[6]; Rate 0.0620 kg/ha,0.0
same,Preemergence herbicidal rating CASOB,[6]; Rate 0.1250 kg/ha,0.0
same,Preemergence herbicidal rating CASOB,[6]; Rate 0.2500 kg/ha,0.0
same,Preemergence herbicidal rating AMBEL,[7]; Rate 0.0620 kg/ha,0.0
same,Preemergence herbicidal rating AMBEL,[7]; Rate 0.1250 kg/ha,5.0
same,Preemergence herbicidal rating AMBEL,[7]; Rate 0.2500 kg/ha,6.0
same,Preemergence herbicidal rating CHEAL,[8]; Rate 0.0620 kg/ha,9.0
same,Preemergence herbicidal rating CHEAL,[8]; Rate 0.1250 kg/ha,9.0
same,Preemergence herbicidal rating CHEAL,[8]; Rate 0.2500 kg/ha,9.0
same,IPOHE herbicidal rating,[9]; rate 0.0320 kg/ha,8.0
same,IPOHE herbicidal rating,[9]; rate 0.0620 kg/ha,8.0
same,IPOHE herbicidal rating,[9]; rate 0.1250 kg/ha,9.0
same,"herbicidal rating, MOOVA",[10]; rate 0.0080 kg/ha,0.0
same,"herbicidal rating, MOOVA",[10]; rate 0.0320 kg/ha,3.0
same,"herbicidal rating, MOOVA",[10]; rate 0.1250 kg/ha,9.0
same,ECHCG herbicidal rating,[11]; rate 0.0320 kg/ha,0.0
same,ECHCG herbicidal rating,[11]; rate 0.0620 kg/ha,0.0
same,ECHCG herbicidal rating,[11]; rate 0.1250 kg/ha,3.0
same,"herbicidal rating, SAGPY",[12]; rate 0.0080 kg/ha,0.0
same,"herbicidal rating, SAGPY",[12]; rate 0.0320 kg/ha,0.0
same,"herbicidal rating, SAGPY",[12]; rate 0.1250 kg/ha,0.0
same,Preemergence herbicidal rating IPOHE,[13]; Rate 0.0620 kg/ha,0.0
same,Preemergence herbicidal rating IPOHE,[13]; Rate 0.1250 kg/ha,1.0
same,Preemergence herbicidal rating IPOHE,[13]; Rate 0.2500 kg/ha,3.0
same,"herbicidal rating, ORYSAT (rice tolerance)","ORYSAT (Rice, Tebonnet) [14]; rate 0.0080 kg/ha",0.0
same,"herbicidal rating, ORYSAT (rice tolerance)","ORYSAT (Rice, Tebonnet) [14]; rate 0.0320 kg/ha",0.0
same,"herbicidal rating, ORYSAT (rice tolerance)","ORYSAT (Rice, Tebonnet) [14]; rate 0.1250 kg/ha",0.0
same,ABUTH herbicidal rating,[15]; rate 0.0320 kg/ha,9.0
same,ABUTH herbicidal rating,[15]; rate 0.0620 kg/ha,9.0
same,ABUTH herbicidal rating,[15]; rate 0.1250 kg/ha,9.0
same,"herbicidal rating, CYPIR",CYPIR (Cyperus iria); rate 0.0080 kg/ha,0.0
same,"herbicidal rating, CYPIR",CYPIR (Cyperus iria); rate 0.0320 kg/ha,3.0
same,"herbicidal rating, CYPIR",CYPIR (Cyperus iria); rate 0.1250 kg/ha,9.0
same,ZEAMX herbicidal rating,"ZEAMX (Corn, Field); rate 0.0320 kg/ha",5.5
same,ZEAMX herbicidal rating,"ZEAMX (Corn, Field); rate 0.0620 kg/ha",6.5
same,ZEAMX herbicidal rating,"ZEAMX (Corn, Field); rate 0.1250 kg/ha",7.0
same,Preemergence herbicidal rating ORYSAT,"ORYSAT (Rice, Tebonnet) [16]; Rate 0.0620 kg/ha",1.0
same,Preemergence herbicidal rating ORYSAT,"ORYSAT (Rice, Tebonnet) [16]; Rate 0.1250 kg/ha",2.0
same,Preemergence herbicidal rating ORYSAT,"ORYSAT (Rice, Tebonnet) [16]; Rate 0.2500 kg/ha",2.0
same,GLXMAW herbicidal rating,[17]; rate 0.0320 kg/ha,7.5
same,GLXMAW herbicidal rating,[17]; rate 0.0620 kg/ha,7.5
same,GLXMAW herbicidal rating,[17]; rate 0.1250 kg/ha,8.0
